Experimental data taken from US12268782B2, “Preparation method of fatty acid liposome for VC encapsulation” (Jiangnan University, priority 2020, dated 2025).

Assay: Degradation of VC in deionized water over time at different temperatures (FIG. 1)
Assay type: physicochemical
From the text: Vitamin C (VC), also known as L-ascorbic acid, is a main component of common food additives and cosmetics, and can serve as a vitamin supplement and an antioxidant in cosmetics. However, VC is very unstable in neutral or alkaline aqueous solutions.

degradation rate of VC (deionized water, 6 h, temperature higher than 50° C.): 80% | VC degrades (degradation) (initial concentration 0.27 mg/mL in deionized water, 25° C., after 12 h): 29%
Structure (SMILES): O=C1O[C@H]([C@@H](O)CO)C(O)=C1O [VC, L-ascorbic acid]
